ChEMBL document CHEMBL6127034, “Design, synthesis and biological evaluation of a novel PAK1 degrader for the treatment of triple negative breast cancer” (Bioorg Med Chem, 2024)
Calls of active or inactive are those of the source. The calls are words filed in the database; no cut-off is given here.

Assays:
[1] = test system: MDA-MB-231; test: Induction of apoptosis in human MDA-MB-231 cells assessed as necrotic cells at 2.5 uM incubated for 12 to 48 hrs by Annexin V-FITC/PI staining based flow cytometry (reference value: 0.43 %); assay type: functional; settings: time 12-48 hrs
[2] = test system: MDA-MB-231; test: Induction of apoptosis in human MDA-MB-231 cells xenografted in BALB/c mouse assessed as increase in cleaved caspase-3 level at 20 mg/kg, ip qd for 12 days by Western blot analysis; assay type: functional, organism-based; settings: time 12.0 day
[3] = test system: MDA-MB-231; test: Antiproliferative activity against human MDA-MB-231 cells assessed as decrease in green fluorescence by EdU staining based analysis; assay type: functional, cell-based
[4] = molecular target: Serine/threonine-protein kinase PAK 3 (Homo sapiens) (UniProt O75914); test: Inhibition of PAK3 in human MDA-MB-231 cells incubated upto 48 hrs by Western blot analysis; assay type: cell-based
[5] = test system: MDA-MB-231; test: Induction of apoptosis in human MDA-MB-231 cells assessed as early apoptotic cells at 2.5 uM incubated for 12 to 48 hrs by Annexin V-FITC/PI staining based flow cytometry (reference value: 1.12 %); assay type: functional; settings: time 12-48 hrs
[6] = molecular target: T1, Serine/threonine-protein kinase PAK 1 (Homo sapiens, UniProt Q13153); test: In vivo inhibition of PAK1 phosphorylation at S199 in human MDA-MB-231 cells xenografted in BALB/c mouse at 20 mg/kg, ip qd for 12 days by Western blot analysis; assay type: functional, organism-based; settings: time 12.0 day
[7] = test system: MDA-MB-231; test: Inhibition of cell proliferation of human MDA-MB-231 cells xenografted in BALB/c mouse assessed as reduction in Ki-67 level at 20 mg/kg, ip qd for 12 days by IHC analysis; assay type: functional, organism-based; settings: time 12.0 day
[8] = test system: MDA-MB-231; test: Induction of apoptosis in human MDA-MB-231 cells assessed as viable cells at 2.5 to 10 uM incubated for 48 hrs by Annexin V-FITC/PI staining based flow cytometry (reference value: 94.8 %); assay type: functional; settings: dose 2.5-10 µM
[9] = test system: MDA-MB-231; test: Induction of apoptosis in human MDA-MB-231 cells assessed as necrotic cells at 2.5 to 10 uM incubated for 24 hrs by Annexin V-FITC/PI staining based flow cytometry (reference value: 1.08 %); assay type: functional; settings: dose 2.5-10 µM
[10] = test system: MDA-MB-231; test: Induction of apoptosis in human MDA-MB-231 cells assessed as early apoptotic cells at 2.5 to 10 uM incubated for 24 hrs by Annexin V-FITC/PI staining based flow cytometry (reference value: 1.70 %); assay type: functional; settings: dose 2.5-10 µM
[11] = test system: MDA-MB-231; test: Induction of apoptosis in human MDA-MB-231 cells assessed as increase in cleaved caspase-3 level at 2.5 to 10 uM incubated upto 48 hrs by Western blot analysis; assay type: functional, cell-based; settings: dose 2.5-10 µM
[12] = test system: MDA-MB-231; test: Inhibition of cell migration in human MDA-MB-231 cells assessed as increase in E-Cadherin level by Western blot analysis; assay type: functional, cell-based; settings: time <= 48.0 hrs, TDE = time-dependent effect
[13] = molecular target: T1, Serine/threonine-protein kinase PAK 1; test: Inhibition of PAK1 phosphorylation at S144 in human MDA-MB-231 cells incubated upto 48 hrs by Western blot analysis; assay type: cell-based
[14] = molecular target: T2, von Hippel-Lindau disease tumor suppressor/Serine/threonine-protein kinase PAK 1 (Homo sapiens, UniProt Q13153+P40337); test: PROTAC activity at VHL/PAK1 in human MDA-MB-231 cells assessed as induction of protein degradation at 2.5 uM incubated for 48 hrs by Western blot analysis relative to control; assay type: cell-based
Target sequence in this assay (Q13153 2-545 limits assumed): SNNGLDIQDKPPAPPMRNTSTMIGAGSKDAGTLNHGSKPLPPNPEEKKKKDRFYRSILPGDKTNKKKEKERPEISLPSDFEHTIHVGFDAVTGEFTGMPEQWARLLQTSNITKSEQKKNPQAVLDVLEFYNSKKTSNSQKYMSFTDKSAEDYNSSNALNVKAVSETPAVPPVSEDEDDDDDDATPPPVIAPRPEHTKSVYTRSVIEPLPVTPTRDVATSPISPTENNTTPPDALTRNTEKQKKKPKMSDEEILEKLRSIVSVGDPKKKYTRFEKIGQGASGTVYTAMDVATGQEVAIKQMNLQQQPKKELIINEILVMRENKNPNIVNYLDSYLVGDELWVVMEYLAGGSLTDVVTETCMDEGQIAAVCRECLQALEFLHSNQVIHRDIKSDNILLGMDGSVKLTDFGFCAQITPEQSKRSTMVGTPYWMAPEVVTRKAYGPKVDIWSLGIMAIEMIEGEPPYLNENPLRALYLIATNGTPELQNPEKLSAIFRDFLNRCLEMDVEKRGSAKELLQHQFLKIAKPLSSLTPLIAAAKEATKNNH
Target sequence in this assay (P40337 whole entry partner): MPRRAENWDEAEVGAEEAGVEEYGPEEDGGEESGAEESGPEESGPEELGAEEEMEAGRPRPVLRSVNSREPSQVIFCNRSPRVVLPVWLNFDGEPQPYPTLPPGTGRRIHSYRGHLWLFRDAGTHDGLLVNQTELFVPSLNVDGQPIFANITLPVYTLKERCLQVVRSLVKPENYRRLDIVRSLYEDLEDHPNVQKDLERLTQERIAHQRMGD

[15] = test system: MDA-MB-231; test: Induction of apoptosis in human MDA-MB-231 cells assessed as viable cells at 2.5 uM incubated for 12 to 48 hrs by Annexin V-FITC/PI staining based flow cytometry (reference value: 97.0 %); assay type: functional; settings: time 12-48 hrs, read-out: Activity
[16] = test system: MDA-MB-231; test: Antiproliferative activity against human MDA-MB-231 cells incubated for 48 hrs by MTT assay; assay type: functional, cell-based; settings: MDA-MB-231, 48 h
[17] = test system: MDA-MB-231; test: Inhibition of cell migration in human MDA-MB-231 cells upto 10 uM incubated for 24 hrs by transwell assay; assay type: functional, cell-based
[18] = molecular target: T1, Serine/threonine-protein kinase PAK 1; test: In vivo inhibition of PAK1 in human MDA-MB-231 cells xenografted in BALB/c mouse at 20 mg/kg, ip qd for 12 days by Western blot analysis; assay type: functional, organism-based; settings: time 12.0 day
[19] = test system: MDA-MB-231; test: Antitumor activity against human MDA-MB-231 cells xenografted in BALB/c mouse assessed as reduction in tumor growth rate at 20 mg/kg, ip qd for 12 days; assay type: functional, organism-based; settings: time 12.0 day
[20] = test system: MDA-MB-231; test: Inhibition of cell migration in human MDA-MB-231 cells at 2.5 uM incubated upto 48 hrs by wound healing assay; assay type: functional, cell-based
[21] = test system: MDA-MB-231; test: Induction of apoptosis in human MDA-MB-231 cells assessed as increase in cleaved caspase-8 level at 2.5 to 10 uM incubated upto 48 hrs by Western blot analysis; assay type: functional, cell-based; settings: dose 2.5-10 µM
[22] = molecular target: T1, Serine/threonine-protein kinase PAK 1; test: Inhibition of PAK1 phosphorylation at S199 in human MDA-MB-231 cells incubated upto 48 hrs by Western blot analysis; assay type: cell-based
[23] = molecular target: T1, Serine/threonine-protein kinase PAK 1; test: Induction of thermal stability of PAK1 in human MDA-MB-231 cells at 10 uM under 37 to 67 degreeC heat exposure by CETSA; assay type: cell-based
[24] = molecular target: Serine/threonine-protein kinase PAK 2 (Homo sapiens) (UniProt Q13177); test: Inhibition of PAK2 in human MDA-MB-231 cells incubated upto 48 hrs by Western blot analysis; assay type: cell-based
[25] = test system: MDA-MB-231; test: Antiproliferative activity against human MDA-MB-231 cells assessed as decrease in Ki-67 expression at 5 uM incubated for 24 hrs by immunofluorescence based analysis; assay type: functional, cell-based
[26] = molecular target: T2, von Hippel-Lindau disease tumor suppressor/Serine/threonine-protein kinase PAK 1; test: PROTAC activity at VHL/PAK1 in human MDA-MB-231 cells assessed as fold change in protein expression at 2.5 uM incubated for 48 hrs by Western blot analysis relative to control; assay type: cell-based
Target sequence in this assay (Q13153 2-545 limits assumed): as the sequence (Q13153 2-545 limits assumed) above
Target sequence in this assay (P40337 whole entry partner): as the sequence (P40337 whole entry partner) above

[27] = molecular target: T2, von Hippel-Lindau disease tumor suppressor/Serine/threonine-protein kinase PAK 1; test: PROTAC activity at VHL/PAK1 in human MDA-MB-231 cells assessed as induction of protein degradation incubated for 48 hrs by Western blot analysis; assay type: cell-based
[28] = test system: MDA-MB-231; test: Induction of apoptosis in human MDA-MB-231 cells assessed as viable cells at 2.5 to 10 uM incubated for 12 hrs by Annexin V-FITC/PI staining based flow cytometry (reference value: 94.8 %); assay type: functional; settings: dose 2.5-10 µM
[29] = test system: MDA-MB-231; test: Induction of apoptosis in human MDA-MB-231 cells assessed as increase in cleaved PARP level at 2.5 to 10 uM incubated upto 48 hrs by Western blot analysis; assay type: functional, cell-based; settings: dose 2.5-10 µM
[30] = test system: MDA-MB-231; test: Inhibition of cell migration in human MDA-MB-231 cells assessed as decrease in MMP-2 level by Western blot analysis; assay type: functional, cell-based; settings: time <= 48.0 hrs, TDE = time-dependent effect
[31] = Toxicity in BALB/c mouse xenografted with human MDA-MB-231 cells assessed as body weight change at 20 mg/kg, ip qd for 12 days; assay type: organism-based; settings: in vivo, 288 h, time 12 day
[32] = test system: MDA-MB-231; test: Antitumor activity against human MDA-MB-231 cells xenografted in BALB/c mouse assessed as reduction in tumor weight at 20 mg/kg, ip qd for 12 days; assay type: functional, organism-based; settings: time 12.0 day
[33] = test system: MDA-MB-231; test: Inhibition of formation of human MDA-MB-231 cells tumor sphere by crystal violet staining based analysis; assay type: functional, cell-based; settings: time <= 48.0 hrs, TDE = time-dependent effect
[34] = test system: MDA-MB-231; test: Induction of apoptosis in human MDA-MB-231 cells assessed as increase in Bax level at 2.5 to 10 uM incubated upto 48 hrs by Western blot analysis; assay type: functional, cell-based; settings: dose 2.5-10 µM

T1 sequence (Q13153 whole entry): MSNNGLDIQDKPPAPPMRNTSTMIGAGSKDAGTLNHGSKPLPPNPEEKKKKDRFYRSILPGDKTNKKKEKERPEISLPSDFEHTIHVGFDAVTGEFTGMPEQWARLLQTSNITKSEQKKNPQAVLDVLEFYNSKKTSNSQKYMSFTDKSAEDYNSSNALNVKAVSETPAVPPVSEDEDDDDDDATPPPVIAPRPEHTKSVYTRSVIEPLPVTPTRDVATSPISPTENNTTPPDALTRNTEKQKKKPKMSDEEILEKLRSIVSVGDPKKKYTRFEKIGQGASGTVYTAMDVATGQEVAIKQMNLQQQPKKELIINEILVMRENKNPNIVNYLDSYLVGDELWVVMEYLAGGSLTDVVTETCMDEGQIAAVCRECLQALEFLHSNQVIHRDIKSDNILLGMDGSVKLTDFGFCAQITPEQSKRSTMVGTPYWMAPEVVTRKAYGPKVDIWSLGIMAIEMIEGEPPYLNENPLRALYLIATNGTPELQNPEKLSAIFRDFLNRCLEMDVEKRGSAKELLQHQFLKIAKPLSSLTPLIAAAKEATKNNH
Serine/threonine-protein kinase PAK 3 (Homo sapiens), sequence (O75914 whole entry, looked up): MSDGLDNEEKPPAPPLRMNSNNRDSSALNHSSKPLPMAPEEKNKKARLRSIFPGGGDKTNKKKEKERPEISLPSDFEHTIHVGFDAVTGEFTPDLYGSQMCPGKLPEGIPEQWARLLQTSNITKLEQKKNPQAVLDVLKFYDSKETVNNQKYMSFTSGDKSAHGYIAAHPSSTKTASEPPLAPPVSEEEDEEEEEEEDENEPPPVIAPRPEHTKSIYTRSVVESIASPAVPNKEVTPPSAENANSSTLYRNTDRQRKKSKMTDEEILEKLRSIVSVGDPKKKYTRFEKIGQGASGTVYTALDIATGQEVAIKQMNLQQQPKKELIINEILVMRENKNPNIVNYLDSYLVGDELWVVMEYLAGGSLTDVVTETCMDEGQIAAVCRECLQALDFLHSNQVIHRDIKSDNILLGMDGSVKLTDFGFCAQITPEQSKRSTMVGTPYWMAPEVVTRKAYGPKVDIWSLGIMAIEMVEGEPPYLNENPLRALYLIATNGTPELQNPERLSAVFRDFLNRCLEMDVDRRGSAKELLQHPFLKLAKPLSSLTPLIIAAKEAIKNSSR
Serine/threonine-protein kinase PAK 2 (Homo sapiens), sequence (Q13177 whole entry): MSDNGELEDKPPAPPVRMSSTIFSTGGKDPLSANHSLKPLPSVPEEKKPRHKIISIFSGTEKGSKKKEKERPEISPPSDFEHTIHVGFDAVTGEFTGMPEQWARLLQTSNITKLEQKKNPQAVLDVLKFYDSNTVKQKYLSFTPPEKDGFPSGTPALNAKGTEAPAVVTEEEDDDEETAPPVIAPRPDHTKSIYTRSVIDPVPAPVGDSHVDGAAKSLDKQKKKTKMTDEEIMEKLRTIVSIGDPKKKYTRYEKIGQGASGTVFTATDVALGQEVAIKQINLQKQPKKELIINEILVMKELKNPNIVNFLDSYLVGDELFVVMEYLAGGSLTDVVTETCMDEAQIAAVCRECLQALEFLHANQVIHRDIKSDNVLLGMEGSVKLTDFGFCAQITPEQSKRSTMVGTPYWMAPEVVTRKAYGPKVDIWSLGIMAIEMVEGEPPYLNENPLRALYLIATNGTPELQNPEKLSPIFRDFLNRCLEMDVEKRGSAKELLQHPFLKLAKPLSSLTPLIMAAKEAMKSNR

Q: With `Cc1ncsc1-c1ccc([C@H](C)NC(=O)[C@@H]2C[C@@H](O)CN2C(=O)[C@@H](NC(=O)CCc2cn(CCCCCCCn3c(=O)c(-c4ccc(Cl)cc4Cl)cc4cnc(NC5CC5)nc43)nn2)C(C)(C)C)cc1` as the compound, how does the Activity [1] read?
A: 1.4%

Q: And the Activity [2]?
A: Active

Q: And the Activity [3]?
A: Active

Q: What about the inhibition [4] of the same compound?
A: inactive

Q: And the Activity [5]?
A: 5.62%

Q: And the inhibition [6]?
A: Active

Q: And the inhibition [7]?
A: Active

Q: And the Activity [8]?
A: 55.4%

Q: What about the Activity [9] of the same compound?
A: 4.92%

Q: What about the Activity [10] of the same compound?
A: 11.7%

Q: What about the Activity [11] of the same compound?
A: Active

Q: And the inhibition [12]?
A: Tde

Q: And the inhibition [13]?
A: Active

Q: What about the Activity [14] of the same compound?
A: 71%

Q: What about the viability at 2.5 µM [15] of the same compound?
A: 84.8%

Q: What about the IC50 [16] of the same compound?
A: 1270 nM

Q: And the inhibition [17]?
A: Active

Q: And the inhibition [18]?
A: Active

Q: What about the Activity [19] of the same compound?
A: Active

Q: What about the inhibition [20] of the same compound?
A: Active

Q: What about the Activity [21] of the same compound?
A: Active

Q: What about the inhibition [22] of the same compound?
A: Active

Q: What about the Activity [23] of the same compound?
A: Active

Q: What about the inhibition [24] of the same compound?
A: inactive

Q: And the Activity [25]?
A: Active

Q: What about the fold change (FC) [26] of the same compound?
A: 0.29

Q: What about the DC50 [27] of the same compound?
A: 480 nM

Q: What about the Activity ([27]; dose <= 200.0 µM) of the same compound?
A: Dose-Dependent Effect

Q: What about the Activity [28] of the same compound?
A: 86.3%

Q: And the Activity [29]?
A: Active

Q: What about the inhibition [30] of the same compound?
A: Tde

Q: What about the Activity [31] of the same compound?
A: Non-Toxic

Q: And the Activity [32]?
A: Active

Q: What about the inhibition [33] of the same compound?
A: Tde

Q: And the Activity [34]?
A: Active
